Tests used:
Type in all cases: in vivo, human
healthy subjects [1] = test: Safety and tolerability, adverse events
Protocol: In a single-center, double-blind, placebo-controlled, randomized, two-way cross-over study, 32 healthy subjects (15 males) received placebo on Day 1 followed by multiple-dose administration of either ponesimod or placebo (ratio 3:1). Ponesimod was administered alternately using regimen A (incremental dose increase from 2 to 20 mg) or B (10 mg for 7 days followed by a single-dose administration of 20 mg). Cardiodynamic (Holter and 12-lead ECG), pharmacokinetic, pharmacodynamic (total lymphocyte count), and safety variables were assessed.
(§1) The enrolled subjects came to the study center for each treatment period on Day −2 and participated in a run-in (all study procedures performed without study drug administration) on Day −1. On Day 1, subjects were randomized to one of the two possible sequences of the two up-titration regimens A and B (ratio 1:1). On Day 1, all subjects received placebo; the first study drug administration (or its matching placebo) occurred on Day 2. Regimen A consisted of the novel up-titration regimen: ponesimod was administered once daily (o.d.) orally at a dose of 2 mg on Day 2 and Day 3, 3 mg on Day 4 and Day 5, 4 mg on Day 6 and Day 7, 5 mg on Day 8, 6 mg on Day 9, 7 mg on Day 10, 8 mg on Day 11, 9 mg on Day 12, 10 mg on Day 13 and Day 14, and 20 mg on Day 15. The reference regimen (regimen B) was based on previous studies (Olsson T. et al., Oral ponesimod in relapsing-remitting multiple sclerosis: a randomised phase II trial. J Neurol Neurosurg Psychiatry. 2014; 85 (11): 1198-1208; and Vaclavkova A. et al., Oral ponesimod in patients with chronic plaque psoriasis: a randomised, double-blind, placebo-controlled phase 2 trial. Lancet. 2014; 384 (9959): 2036-2045) and consisted of an o.d. oral administration of ponesimod at a dose of 10 mg for 7 days (i.e., from Day 2 to Day 8) and 20 mg on Day 9. From Day 10 to Day 15 subjects received o.d. the matching placebo. In the placebo group (1:1 sex ratio), subjects received placebo from Day 1 to Day 15. All treatments were administered at the same time in the morning (fasted condition) with approximately 240 mL of water.
(§2) Safety and tolerability were evaluated by monitoring adverse events (AEs), vital signs measurements (supine blood pressure), pulmonary function tests (PFTs; i.e., FEV1 and FVC), clinical laboratory, physical, and neurological examinations. Recording of blood pressure was performed at the same time-points as 12-lead ECG.

healthy subjects [2] = test: Vital signs, supine blood pressure; conditions: first administration, mean±SD
Source text: as §1, §2

[3] = system: circulating total lymphocyte count; test: Total lymphocyte count by hemocytometry; conditions: for total lymphocyte count, mean percentage change from baseline (±SD): Day 3; for total lymphocyte count, decrease from baseline: Day 6
Source text: The enrolled subjects came to the study center for each treatment period on Day −2 and participated in a run-in (all study procedures performed without study drug administration) on Day −1. On Day 1, subjects were randomized to one of the two possible sequences of the two up-titration regimens A and B (ratio 1:1). On Day 1, all subjects received placebo; the first study drug administration (or its matching placebo) occurred on Day 2. Regimen A consisted of the novel up-titration regimen: ponesimod was administered once daily (o.d.) orally at a dose of 2 mg on Day 2 and Day 3, 3 mg on Day 4 and Day 5, 4 mg on Day 6 and Day 7, 5 mg on Day 8, 6 mg on Day 9, 7 mg on Day 10, 8 mg on Day 11, 9 mg on Day 12, 10 mg on Day 13 and Day 14, and 20 mg on Day 15. The reference regimen (regimen B) was based on previous studies (Olsson T. et al., Oral ponesimod in relapsing-remitting multiple sclerosis: a randomised phase II trial. J Neurol Neurosurg Psychiatry. 2014; 85 (11): 1198-1208; and Vaclavkova A. et al., Oral ponesimod in patients with chronic plaque psoriasis: a randomised, double-blind, placebo-controlled phase 2 trial. Lancet. 2014; 384 (9959): 2036-2045) and consisted of an o.d. oral administration of ponesimod at a dose of 10 mg for 7 days (i.e., from Day 2 to Day 8) and 20 mg on Day 9. From Day 10 to Day 15 subjects received o.d. the matching placebo. In the placebo group (1:1 sex ratio), subjects received placebo from Day 1 to Day 15. All treatments were administered at the same time in the morning (fasted condition) with approximately 240 mL of water. Blood samples of about 3 mL were collected in ethylene di-amine tetra acetic acid tubes at pre-dose and 3 h after study drug administration from Day 1 to Day 15 in each treatment period. After centrifugation, plasma was transferred into a polypropylene tube and stored at −21° C. (±5° C.) pending analysis. Plasma concentrations of ponesimod were determined using a validated liquid chromatography coupled to tandem mass spectrometry assay with a lower limit of quantification of 1 ng/mL (Brossard P. et al., Pharmacokinetics and pharmacodynamics of ponesimod, a selective S1 P1 receptor modulator, in the first-in-human study. British journal of clinical pharmacology. 2013; 76 (6): 888-896). Trough samples were taken on Day −1, Day 3, Day 6, Day 9, Day 12, and Day 15 of each treatment period and at EOFP and EOS to assess total lymphocyte count by hemocytometry. Cardiodynamic and pharmacodynamic data are expressed as mean±SD. Repeated measure one-way ANOVAs followed by Tukey's multiple-comparisons tests were used to perform inter-group (i.e., placebo vs. regimen A vs. regimen B) comparisons. Student's t-tests were employed to perform intra-group (baseline vs. treatment) comparisons. Differences were considered to be statistically significant at p <0.05. SAS® version 9.2 (SAS Institute, Cary, NC, USA) was used for the statistical analysis and descriptive statistics of clinical data.

## CCC/N=C1\S/C(=C\c2ccc(OC[C@H](O)CO)c(Cl)c2)C(=O)N1c1ccccc1C [ponesimod, (R)-5-[3-chloro-4-(2,3-dihydroxy-propoxy)-benz[Z]ylidene]-2-([Z]-propylimino)-3-o-tolyl-thiazolidin-4-one]
Healthy subjects [1]; 20 mg ponesimod (regimen B)
  time of serious AE of atrial fibrillation after administration: 6 h
  time to resolution of serious AE of atrial fibrillation without sequelae: ≤ 24 h
Healthy subjects [1]; after 20 mg ponesimod (regimen B)
  serious AE: One serious AE of atrial fibrillation
Healthy subjects [1]; all treatment groups
  intensity of AEs: mild to moderate
Healthy subjects [1]; on ponesimod, also among the most common in the placebo group
  most commonly reported AEs: headache, dizziness, and procedural site reaction
Healthy subjects [1]; regimen B vs regimen A
  AEs of special interest related to cardiac function (sinus bradycardia and palpitations): reported more frequently during regimen B compared to regimen A
Healthy subjects [2]; regimen A
  decrease in DBP: −7±5.3 mmHg
  decrease in SBP: −4±4.4 mmHg
Healthy subjects [2]; regimen B
  decrease in DBP: −10±4.4 mmHg
  decrease in SBP: −5±7.7 mmHg
[3]; at EOFP and EOS, normal range i.e. 80% of baseline
  recovery of individual total lymphocyte count: returned to within the normal range
[3]; regimen A
  total lymphocyte count, mean percentage change from baseline (±SD): −11.6±10.2%
  total lymphocyte count, decrease from baseline: −15.0±14.4%
[3]; regimen A, Day 15 before administration of the dose of 20 mg
  total lymphocyte count, decrease following the last dose of 10 mg: −50.8±12.1%
[3]; regimen B
  total lymphocyte count, mean percentage change from baseline (±SD): −28.9±12.2%
  total lymphocyte count, decrease from baseline: −46.5±12.3%
[3]; regimen B, Day 9 before administration of the dose of 20 mg
  total lymphocyte count, decrease following the last dose of 10 mg: −52.3±11.0%
